What was measured:
CDK9/Cyclin T1 = target: T1, CDK9/Cyclin T1 (Homo sapiens, UniProt P50750); assay: Kinase assay using CDK9/Cyclin T1; format: biochemical; settings: read-out: CDK9 (activity range)
T1 construct: made in house; host or cells: HEK293 cells, recombinant adenovirus
Description: Cloning of CDK9 and Cyclin T1:
Both cDNA fragments were cloned by PCR into pDONR201 vectors using the gateway recombination system (Invitrogen) according to the manufacturer's recommendations. The fragments were subcloned into a gateway-adapted shuttle vector (pPM7) for production of recombinant adenovirus. All plasmids were verified by restriction digests and sequencing analysis.
Expression and Purification of CDK9/Cyclin T1 Proteins:
Expression and purification was in principle performed as described by Cotten et al. (M. Cotten et al., Nucleic acids research, 2003, 31(28), 128).
Kinase Assay Using CDK9/Cyclin T1:
Kinase assays were performed in principle as described by Cotten et al. (M. Cotten et al., Nucleic acids research, 2003, 31(28), 128).

CDK2/CyclinA = target: T2, CDK2/CyclinA (Homo sapiens, UniProt P24941); assay: Kinase assay determining CDK2/CyclinA activity; format: biochemical; settings: read-out: CDK2 (activity range)
T2 construct: purchased Proqinase
Protocol: Kinase Assays Determining CDK2/CyclinA and CDK5/p35 Activity:
Kinase assays were performed as described by the manufacturers recommendations (Proqinase for CDK2/CyclinA and Upsate for CDK5/p35).

T1 sequence (P50750 whole entry): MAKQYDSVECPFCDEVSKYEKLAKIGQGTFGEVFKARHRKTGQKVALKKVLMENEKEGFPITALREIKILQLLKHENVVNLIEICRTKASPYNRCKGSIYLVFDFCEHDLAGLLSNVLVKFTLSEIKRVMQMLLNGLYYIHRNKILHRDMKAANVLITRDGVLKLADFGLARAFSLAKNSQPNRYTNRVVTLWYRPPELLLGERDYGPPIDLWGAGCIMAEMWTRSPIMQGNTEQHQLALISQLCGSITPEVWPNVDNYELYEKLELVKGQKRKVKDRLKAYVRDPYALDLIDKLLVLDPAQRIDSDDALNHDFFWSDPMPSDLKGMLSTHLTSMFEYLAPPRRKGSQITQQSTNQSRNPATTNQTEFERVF
T1 sequence (O60563 whole entry partner): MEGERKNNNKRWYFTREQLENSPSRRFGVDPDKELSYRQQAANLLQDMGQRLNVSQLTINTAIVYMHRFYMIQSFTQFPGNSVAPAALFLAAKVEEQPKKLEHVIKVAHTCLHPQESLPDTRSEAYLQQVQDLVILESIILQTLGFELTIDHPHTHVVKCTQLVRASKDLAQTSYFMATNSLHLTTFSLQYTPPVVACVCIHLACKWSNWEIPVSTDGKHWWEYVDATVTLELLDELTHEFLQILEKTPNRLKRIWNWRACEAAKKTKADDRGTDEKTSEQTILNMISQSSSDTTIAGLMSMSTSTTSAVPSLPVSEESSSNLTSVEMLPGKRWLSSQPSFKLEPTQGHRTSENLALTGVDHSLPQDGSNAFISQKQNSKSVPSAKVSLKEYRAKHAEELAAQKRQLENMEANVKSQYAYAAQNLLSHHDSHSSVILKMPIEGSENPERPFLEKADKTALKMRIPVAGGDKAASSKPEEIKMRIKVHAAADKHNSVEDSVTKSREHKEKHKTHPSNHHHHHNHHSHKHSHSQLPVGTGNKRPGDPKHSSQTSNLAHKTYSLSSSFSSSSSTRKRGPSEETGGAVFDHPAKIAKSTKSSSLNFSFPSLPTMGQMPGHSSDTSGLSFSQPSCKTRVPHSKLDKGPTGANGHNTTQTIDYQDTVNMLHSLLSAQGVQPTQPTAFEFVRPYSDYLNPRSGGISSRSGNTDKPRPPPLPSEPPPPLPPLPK

Row | SMILES | IC50 (CDK9/Cyclin T1) | IC50 (CDK2/CyclinA)
1 | COC(=O)c1ccc(Nc2cc(-c3ccccc3OC)ncn2)cc1 [(15)] | 1 to 1000 nM | 1 to 1000 nM
2 | Cc1ccc(S(=O)(=O)Nc2ccc(Nc3cc(-c4ccc(O)cc4)ncn3)cc2)cc1 [(11)] | 1 to 1000 nM | 1 to 1000 nM
3 | COC(=O)/C=C/c1cccc(-c2cc(Nc3ccc(C)c(NS(C)(=O)=O)c3)ncn2)c1 [(182)] | 1000 to 10000 nM | 1000 to 10000 nM
4 | Cc1ccc(S(=O)(=O)Nc2ccc(Nc3cc(-c4ccc(CCC(=O)O)cc4)ncn3)cc2)cc1 [(17)] | 10000 to 250000 nM | 10000 to 250000 nM
5 | COc1ccc(-c2cc(Nc3ccc(C(=O)N[C@@H]4CCCC[C@H]4N)cc3)ncn2)cc1 (racemic) [(161)] | 1 to 1000 nM | 1000 to 10000 nM
6 | COc1ccccc1-c1cc(Nc2ccc(NC(=O)C(c3ccccc3)N(C)C)cc2)ncn1 (centres unmarked) [(101)] | 1 to 1000 nM | 1000 to 10000 nM
7 | COc1ccccc1-c1cc(Nc2cccc(NC(=O)C(C)(C)C)c2)ncn1 [(122)] | 1000 to 10000 nM | 1000 to 10000 nM
8 | COc1ccc(C(C)C)cc1-c1cc(Nc2ccc(NC(=O)c3ccc(N)cc3)cc2)ncn1 [(35)] | 10000 to 250000 nM | 10000 to 250000 nM
9 | Nc1ccc(C(=O)Nc2ccc(Nc3cc(-c4ccncc4)ncn3)cc2)cc1 [(67)] | 10000 to 250000 nM | 10000 to 250000 nM
10 | CS(=O)(=O)Nc1cccc(Nc2cc(-c3cccc(N)c3)ncn2)c1 [(121)] | 1 to 1000 nM | 1000 to 10000 nM
11 | CCCN(c1ccc(Nc2cc(-c3ccccc3OC)ncn2)cc1)S(=O)(=O)c1ccc(C)cc1 [(18)] | 1000 to 10000 nM | 10000 to 250000 nM
12 | COc1ccccc1-c1cc(Nc2ccc(NS(=O)(=O)c3ccccc3)cc2)ncn1 [(155)] | 1 to 1000 nM | 1 to 1000 nM
13 | COc1ncccc1-c1cc(Nc2ccc(C)c(NS(C)(=O)=O)c2)ncn1 [(176)] | 1 to 1000 nM | 1000 to 10000 nM
14 | COc1ccccc1-c1cc(Nc2ccc(C(=O)Nc3ccc(N4CCOCC4)cc3)cc2)ncn1 [(125)] | 1 to 1000 nM | 1000 to 10000 nM
15 | COc1cccc(-c2cc(Nc3ccc(NS(=O)(=O)c4ccc(C)cc4)cc3)ncn2)c1 [(2)] | 10000 to 250000 nM | 10000 to 250000 nM
16 | COc1ccccc1-c1cc(Nc2ccc(NC(=O)Cc3ccccc3)cc2)ncn1 [(71)] | 1 to 1000 nM | 1000 to 10000 nM
17 | COc1ccccc1-c1ncnc(Nc2ccc(N)cc2)c1C [(152)] | 10000 to 250000 nM | 10000 to 250000 nM
18 | Nc1ccc(C(=O)Nc2ccc(Nc3cc(-c4ccccc4)ncn3)cc2)cc1 [(76)] | 1000 to 10000 nM | 10000 to 250000 nM
19 | COc1ccccc1-c1cc(Nc2ccc(NC(=O)c3cn(C)cn3)cc2)ncn1 [(70)] | 1 to 1000 nM | 1000 to 10000 nM
20 | CCCS(=O)(=O)Nc1ccc(Nc2cc(-c3ccccc3OC)ncn2)cc1 [(154)] | 1 to 1000 nM | 1 to 1000 nM
21 | COc1ccccc1-c1cc(Nc2ccc(NC(=O)C3CC4CCC3C4)cc2)ncn1 (centres unmarked) [(36)] | 1 to 1000 nM | 10000 to 250000 nM
22 | COc1ccccc1-c1cc(Nc2ccc(NS(=O)(=O)C(C)C)cc2)ncn1 [(153)] | 1 to 1000 nM | 1 to 1000 nM
23 | COc1ccccc1-c1cc(Nc2ccc(NS(=O)(=O)c3ccc(-c4ccccc4)cc3)cc2)ncn1 [(34)] | 1000 to 10000 nM | 1000 to 10000 nM
24 | Cc1ccc(Nc2cc(-c3ccccc3OCc3ccccc3)ncn2)cc1NS(C)(=O)=O [(156)] | 1 to 1000 nM | 1 to 1000 nM

Row | SMILES | IC50 (CDK9/Cyclin T1) | IC50 (CDK2/CyclinA)
25 | Cc1ccc(Nc2cc(-c3cccc(N(C)C)c3)ncn2)cc1NS(C)(=O)=O [(157)] | 1 to 1000 nM | 1000 to 10000 nM
26 | COc1ccccc1-c1cc(Nc2ccc(NC(=O)c3ccccc3N)cc2)ncn1 [(20)] | 1 to 1000 nM | 1000 to 10000 nM
27 | CC(C)Oc1ccccc1-c1cc(NCCc2ccncc2)ncn1 [(99)] | 1 to 1000 nM | 1000 to 10000 nM
28 | COc1cccc(-c2cc(Nc3ccc(NC(=O)c4ccc(N)cc4)cc3)ncn2)c1OC [(56)] | 1000 to 10000 nM | 1000 to 10000 nM
29 | Cc1ccc(Nc2cc(-c3cncnc3)ncn2)cc1NS(C)(=O)=O [(110)] | 1000 to 10000 nM | 1000 to 10000 nM
30 | CC(C)(C)C(=O)Nc1ccc(Nc2cc(-c3ccccc3C(F)(F)F)ncn2)cc1 [(114)] | 10000 to 250000 nM | 10000 to 250000 nM
31 | Nc1ccc(C(=O)Nc2ccc(Nc3cc(-c4ccccc4OCc4ccccc4)ncn3)cc2)cc1 [(4)] | 1 to 1000 nM | 1000 to 10000 nM
32 | Cc1ccc(Nc2cc(-c3cccc(NS(C)(=O)=O)c3)ncn2)cc1NS(C)(=O)=O [(108)] | 1000 to 10000 nM | 1 to 1000 nM
33 | Cc1ccc(Nc2cc(-c3cccc(C=O)c3)ncn2)cc1NS(C)(=O)=O [(165)] | 1000 to 10000 nM | 1000 to 10000 nM
34 | COc1ccccc1-c1cc(Nc2ccc(C(=O)Nc3ccc(O)cc3)cc2)ncn1 [(136)] | 1 to 1000 nM | 1000 to 10000 nM
35 | Cc1ccc(Nc2cc(-c3cccc(CO)c3)ncn2)cc1NS(C)(=O)=O [(183)] | 1000 to 10000 nM | 1000 to 10000 nM
36 | CS(=O)(=O)Nc1cccc(-c2cc(Nc3ccc(C(=O)N[C@@H]4CCCC[C@H]4N)cc3)ncn2)c1 (racemic) [(195)] | 1 to 1000 nM | 1000 to 10000 nM
37 | CC(C)Oc1ccccc1-c1cc(Nc2ccc(NC(=O)c3ccc(N)cc3)cc2)ncn1 [(58)] | 1 to 1000 nM | 1 to 1000 nM
38 | COc1ccccc1-c1cc(Nc2ccc(C(=O)NC3CCCCC3N)cc2)ncn1 (centres unmarked) [(148)] | 1 to 1000 nM | 1000 to 10000 nM
39 | CC(C)(C)C(=O)Nc1ccc(Nc2cc(NCCCO)ncn2)cc1 [(80)] | 10000 to 250000 nM | 10000 to 250000 nM
40 | O=C(Nc1ccc(Nc2cc(-c3ccccc3Cl)ncn2)cc1)[C@@H]1CCCCN1 [(192)] | 1 to 1000 nM | 10000 to 250000 nM
41 | COc1ccccc1-c1cc(Nc2ccc(NC(=O)c3nc4ccccc4s3)cc2)ncn1 [(84)] | 1000 to 10000 nM | 10000 to 250000 nM
42 | Oc1ccccc1-c1cc(NCCc2ccncc2)ncn1 [(94)] | 1000 to 10000 nM | 10000 to 250000 nM
43 | CC(C)(C)C(=O)Nc1ccc(Nc2cc(NCCN)ncn2)cc1 [(79)] | 10000 to 250000 nM | 10000 to 250000 nM
44 | Cc1ccc(Nc2cc(-c3ccccc3OC(C)C)ncn2)cc1NS(C)(=O)=O [(158)] | 1 to 1000 nM | 1 to 1000 nM
45 | COc1ccccc1-c1cc(Nc2ccc(NC(=O)CC3CCCCN3C(=O)OC(C)(C)C)cc2)ncn1 (centres unmarked) [(48)] | 1000 to 10000 nM | 1000 to 10000 nM
46 | COc1ccccc1-c1cc(N(C)c2ccc(N)cc2)ncn1 [(26)] | 1000 to 10000 nM | 1000 to 10000 nM
47 | COc1ccccc1-c1cc(Nc2ccc(NC(=O)c3ccc(N)cc3)cc2)nc(N)n1 [(97)] | 1000 to 10000 nM | 10000 to 250000 nM
48 | CCc1ccccc1-c1cc(Nc2ccc(NC(=O)C(C)(C)C)cc2)ncn1 [(131)] | 10000 to 250000 nM | 1000 to 10000 nM

Row | SMILES | IC50 (CDK9/Cyclin T1) | IC50 (CDK2/CyclinA)
49 | COc1cccc(-c2cc(Nc3ccc(C)c(NS(C)(=O)=O)c3)ncn2)c1 [(100)] | 1000 to 10000 nM | 1000 to 10000 nM
50 | Cc1ccc(S(=O)(=O)Nc2ccc(Nc3cc(Cl)ncn3)cc2)cc1 [(24)] | 10000 to 250000 nM | 1000 to 10000 nM
51 | COc1ccccc1-c1cc(Nc2ccc(NC(=O)NC3CCCCC3)cc2)ncn1 [(38)] | 1 to 1000 nM | 1000 to 10000 nM
52 | Nc1ccc(C(=O)Nc2ccc(Nc3cc(-c4ccc(O)cc4)ncn3)cc2)cc1 [(16)] | 1000 to 10000 nM | 1000 to 10000 nM
53 | COc1ccccc1-c1cc(Nc2ccc(NC(=O)C3CCCCC3)cc2)ncn1 [(41)] | 1000 to 10000 nM | 10000 to 250000 nM
54 | COc1ccccc1-c1cc(Nc2ccc(NS(=O)(=O)c3ccc(C)cc3)cc2)ncn1 [(5)] | 1 to 1000 nM | 1 to 1000 nM
55 | COc1cccc(OC)c1-c1cc(Nc2ccc(NC(=O)c3ccc(N)cc3)cc2)ncn1 [(51)] | 1000 to 10000 nM | 10000 to 250000 nM
56 | Nc1cccc(-c2cc(Nc3cccc(S(N)(=O)=O)c3)ncn2)c1 [(214)] | 1 to 1000 nM | 1000 to 10000 nM
57 | COc1ccccc1-c1cc(Nc2ccc(NS(=O)(=O)c3ccc(C(C)C)cc3)cc2)ncn1 [(23)] | 1 to 1000 nM | 1000 to 10000 nM
58 | COc1ccc(OC)c(-c2cc(Nc3ccc(NC(=O)c4ccc(N)cc4)cc3)ncn2)c1 [(57)] | 10000 to 250000 nM | 10000 to 250000 nM
59 | Cc1ccc(Nc2cc(-c3cccc(C#N)c3)ncn2)cc1NS(C)(=O)=O [(163)] | 1000 to 10000 nM | 1000 to 10000 nM
60 | COc1ccccc1-c1cc(Nc2ccc(C(=O)NC(C)(C)C)cc2)ncn1 [(54)] | 1000 to 10000 nM | 1000 to 10000 nM
61 | COc1ccccc1-c1cc(Nc2ccc(-c3nc4ccccc4o3)cc2)ncn1 [(62)] | 10000 to 250000 nM | 10000 to 250000 nM
62 | COc1ccccc1-c1cc(Nc2ccc(NC(=O)C(C)(C)C)cc2)ncn1 [(19)] | 1 to 1000 nM | 1000 to 10000 nM
63 | Nc1ccc(C(=O)Nc2ccc(Nc3cc(Cl)ncn3)cc2)cc1 [(25)] | 10000 to 250000 nM | 10000 to 250000 nM
64 | Cc1ccc(Nc2cc(-c3cccc(N)c3)ncn2)cc1NS(=O)(=O)c1cn(C)cn1 [(144)] | 1 to 1000 nM | 1 to 1000 nM
65 | Cc1ccc(Nc2cc(-c3cccc(N)c3)ncn2)cc1NS(=O)(=O)c1ccccc1 [(109)] | 1 to 1000 nM | 1000 to 10000 nM
66 | CN1CCC(Nc2cc(Nc3ccc(NC(=O)C(C)(C)C)cc3)ncn2)CC1 [(74)] | 10000 to 250000 nM | 10000 to 250000 nM
67 | CCCCNS(=O)(=O)c1cccc(Nc2cc(-c3ccccc3OC)ncn2)c1 [(184)] | 1 to 1000 nM | 1000 to 10000 nM
68 | Nc1ccc(C(=O)Nc2ccc(Nc3cc(-c4ccccc4O)ncn3)cc2)cc1 [(151)] | 10000 to 250000 nM | 10000 to 250000 nM
69 | COc1ccccc1-c1cc(Nc2ccc(NC(=O)c3ccncc3)cc2)ncn1 [(50)] | 1000 to 10000 nM | 10000 to 250000 nM
70 | COc1ccc(Cl)cc1-c1cc(Nc2ccc(NC(=O)c3ccc(N)cc3)cc2)ncn1 [(39)] | 1000 to 10000 nM | 10000 to 250000 nM

Reference: patent US8084457B2, “Pharmaceutically active 4,6-disubstituted aminopyrimidine derivatives as modulators of protein kinases” (Lead Discovery Center GmbH, priority 2003, dated 2011)
